Results reported in US6699850B2, “Compositions and methods for inhibiting bone resorption” (Merck & Co., Inc., priority 1998, dated 2004).

Columns and labels:
[1] = tested on: 34 kDa Mst Kinase fragment; assay: In-gel kinase assay of Mst kinase activities in cultured osteoclast-like cells; format: cell-based, Murine; settings: for activation of the 34 kDa Mst Kinase fragment: osteoclast like cells; for blocking of activation of Mst1 cleavage by alendronate monosodium trihydrate: FIG. 5 lanes 3 and 4, 10 μM isoprenoid with 30 μM alendronate monosodium trihydrate
Method: (§1) Murine co-cultures of osteoblasts and marrow cells are prepared using the methods of Wesolowski, et al., Exp Cell Res, (1995), 219, pp. 679-686, which is incorporated by reference herein in its entirety. Bone marrow cells are harvested from 6-week-old male Balb/C mice by flushing marrow spaces of freshly isolated long bones (tibiae and femora) with α-MEM (minimal essential media) containing penicillin/streptomycin (100 I.U./ml of each and 20 mM Hepes buffer). The bone marrow cells are suspended in α-MEM and the cells are filtered through an approximately 70 μm cell strainer. The filtrate is centrifuged at about 300×g for about 7 minutes. The resulting pellet is resuspended in α-MEM supplemented with fetal calf serum (10% v/v) and 10 nM 1, 25-(OH)2 vitamin D3. These bone marrow isolates are added to sub-confluent monolayers of osteoblastic MB 1.8 cells in cell culture plates and cultured for 7 days at 37 °C. in the presence of 5% CO2. Culture media is replenished ever other day. Fusion of the osteoclast precursor cells from bone marrow (with each other) to form multinucleated osteoclast-like cells typically occurs after about 7 days. Osteoclast-like cells are enriched by sequential treatment with collagenase (1 mg/mL in phosphate buffered saline) for one hour at 37° C. and EDTA (0.2 g/L in phosphate buffered saline) for 20 min at 37° C. Non-adherent cells are rinsed away by washing with phosphate buffered saline. Osteoclast-like cells which are resistant to the sequential treatments are present at about 95% purity and are maintained in α-MEM supplemented with fetal calf serum (10% v/v), 10 nM 1,25-(OH)2 vitamin D3, macrophage-colony-stimulating factor (5 ng/mL).
The compounds to be evaluated are prepared as a solution of the desired concentration in α-MEM. Examples of compounds that can be evaluated include nitrogen-containing bisphosphonates such as alendronate monosodium trihydrate, as well as compounds that block the effects of these inhibitors, such as isoprenoid compounds, for example, geranylgeraniol, geranylgeranyl phosphate, geranylgeranyl pyrophosphate, geranylgeranyl acetate, geranylgeranyl propionate, geranylgeranyl benzoate, geranylgeranyl lactate, geranylgeranyl succinate, and geranylgeranyl glutarate. Combinations of compounds can also be evaluated. The solutions of the compounds to be evaluated are added to the cultures for a time period of 17-24 hours. No treatment controls (controls not treated with compounds) are prepared by adding equivalent volumes of α-MEM to the control dishes.
Cells are then harvested and Iysed in a HEPES (N-(2-hydroxyethyl)piperazine-N′-(2-ethansulfonic acid) or Tris buffer containing the following: β-glycerophosphate (50 mM); Na3VO4 (1 mM); NaF (1 mM); Microcystin LR (1 μM); leupeptin (10 μg/ml); aprotinin (10 μg/ml); phenylmethyl sulfonylfluoride (1 mM). Protein concentrations are determined for each lysate and 5-20 μg are loaded into each lane of a SDS-PAGE (sodium dodecyl sulfate-polyacrylamide gel electrophoresis) gel containing Myelin Basic Protein, or another kinase substrate, which has been polymerized into the gel at a concentration between 50-400 μg/ml. Molecular weight standards are also loaded into one or more lanes of the gels. In-gel kinase assays are run according to a standard procedure based on Kameshita and Fujisawa, 1989 (Anal. Biochem. 183:139-143) and of Gotoh et al., 1990 (Eur. J. Biochem. 193: 661-669), both references being incorporated by reference herein in their entirety. The proteins are electrophoresed in the above gels. The gels are then successively soaked in 50 mM HEPES, pH 7.6; 5 mM 2-mercaptoethanol and each of the following (for each wash): (a) 20% isopropanol; (b) no additions; (c) urea (6 M); (d) Urea (3 M); (e) Urea (0.75 M); and Tween 20 (0.05% vol:vol). Kinase reactions are then run by first soaking the gels in 20 mM HEPES, pH 7.6; 20 mM MgCl2; 2 mM DTT and then in the same buffer containing 0.02 M ATP (non-radioactive) with ca. 1000 cpm/pmol ^32P-γ-ATP. […]

osteoclast function = assay: Osteoclast cell cultures and bone resorption assays; format: cell-based; settings: with a bisphosphonate such as alendronate monosodium trihydrate; no concentration stated
Method: The compounds are dosed both 5 and 6 days after establishing the culture, and the formation of 250 μm cells are counted using an inverted microscope with a 10×objective and quantitated versus a no treatment control.
as §1, with “Osteoclast-like cells are enriched by sequential treatment with collagenase (1 mg/mL in phosphate buffered saline) for one hour at 37° C. and EDTA (0.2 g/L in phosphate buffered saline) for 20 min at 37° C. Non-adherent cells are rinsed away by washing with phosphate buffered saline. Osteoclast-like cells which are resistant to the sequential treatments are present at about 95% purity and are maintained in α-MEM supplemented with fetal calf serum (10% v/v), 10 nM 1,25-(OH)2 vitamin D3, macrophage-colony-stimulating factor (5 ng/mL).” left out

## NCCCC(O)(P(=O)(O)O)P(=O)(O)O [alendronate monosodium trihydrate, 4-amino-1-hydroxybutylidene-1,1-bisphosphonic acid monosodium trihydrate]
[1]; FIG. 1 lane 3, 30 μM, osteoclast-like cells, in-gel kinase assay after immunoprecipitation
  activation of 34 kDa Mst Kinase fragment immunoprecipitated by anti-Mst and anti-Krs antibody cocktail: activated
[1]; FIG. 2, 30 μM, about 17 hours
  activation of the 34 kDa Mst Kinase fragment: activation
[1]; FIG. 2, 100 μM, about 17 hours
  activation of the 34 kDa Mst Kinase fragment: activation
[1]; FIG. 4 lane 2, 30 μM
  activation of the 34 kDa Mst Kinase fragment: activation
[1]; FIG. 5 lane 2, 30 μM, myelin basic protein as substrate
  activation of Mst1 cleavage: activation of Mst1 cleavage

## CC(O)(P(=O)(O)O)P(=O)(O)O [etidronate disodium]
[1]; FIG. 2, 30 μM, about 17 hours
  activation of the 34 kDa Mst Kinase fragment: fail to activate
[1]; FIG. 2, 100 μM, about 17 hours
  activation of the 34 kDa Mst Kinase fragment: fail to activate

## CC(C)=CCCC(C)=CCCC(C)=CCO [farnesol]
[1]
  blocking of activation of Mst1 cleavage by alendronate monosodium trihydrate: partially blocked

## CC(C)=CCC/C(C)=C/CC/C(C)=C/CC/C(C)=C/CO [geranylgeraniol]
[1]; FIG. 4 lane 3, 10 μM geranylgeraniol with 30 μM alendronate monosodium trihydrate
  effect on activation of the 34 kDa Mst Kinase fragment by alendronate monosodium trihydrate: negates this activation
[1]
  blocking of activation of Mst1 cleavage by alendronate monosodium trihydrate: blocked
[1]; osteoclasts, no concentration stated
  effect on cleavage of Mst induced by bisphosphonates such as alendronate monosodium trihydrate: prevent the cleavage of Mst
Osteoclast function
  effect on bisphosphonate-induced inhibition of osteoclast function: block the inhibitory effect

## O=P(O)(O)C(Sc1ccc(Cl)cc1)P(=O)(O)O [tiludronate disodium]
[1]; FIG. 2, 30 μM, about 17 hours
  activation of the 34 kDa Mst Kinase fragment: fail to activate
[1]; FIG. 2, 100 μM, about 17 hours
  activation of the 34 kDa Mst Kinase fragment: fail to activate
